Key:
[1] = system: P388/ADR cells; test: Doxorubicin accumulation; format: cell-based, murine; conditions: 10 μM doxorubicin, 2 h, FIG. 11A
[2] = system: LePentR50 promastigotes; test: Pentamidine accumulation assay by HPLC; format: cell-based, Leishmania enriettii; conditions: 0.84 mM pentamidine, 3 hr
Experimental: The effect of flavonoid dimers on accumulation of pentamidine was investigated. […] After 3 hrs of incubation, the parasites were washed three times with cold PBS, pH 7.4. The cell pellet was then dissolved in 350 μL 75% acetonitrile and lysed by repeated freeze-thaw cycles. After lysing, the lysed cell suspension was centrifuged at 14,000 g at 4° C. for 10 min. The supernatant was collected and ready for determining pentamidine concentration using HPLC (Agilent 1100 Series). The pentamidine pools were analyzed on Zorbax ODS C18 column (4.6 mm×25 cm, 5-micron) kept at 40° C. The mobile phase consisted of water (10 mM tetramethylammonium chloride (TMAC), 10 mM sodium heptanesulphonate (SHS), 4.2 mM phosphoric acid (PA)) for pump A and 75% acetonitrile (ACN) in water (10 mM TMAC, 10 mM SHS, 4.2 mM PA) for pump B. The column was equilibrated at 40° C. overnight before analyses. Using a flow rate of 1.0 mL/min and signal at 265 nm, analyses were made at 58% pump A and 42% pump B. The retention time of pentamidine is 3.2 min. Compound 9d would not be eluted out under these conditions. To generate a standard curve, a 200 μM stock solution of pentamidine isethionate salt were prepared by dissolving 2.5 mg pentamidine isethionate salt in 21 mL 75% ACN (10 mM TMAC, 10 mM SHS, 4.2 mM PA). Concentration of 100, 50, 25 and 13 μM were then made by serial dilution, allowing the generation of standard curve.

O=c1cc(-c2ccc(OCCOCCOCCOCCOc3ccc(-c4cc(=O)c5c(O)cc(O)cc5o4)cc3)cc2)oc2cc(O)cc(O)c12 [Compound 9d, 1,13-Bis[4′-((5,7-dihydroxy)-4H-chromen-4-on-2-yl)phenyl]-1,4,7,10,13-pentaoxamidecane]
increase of doxorubicin accumulation, folds of control [1]: about 2 folds | intracellular pentamidine concentration ([2]; 15 μM 9d): 2.95±0.01 μM pentamidine/mg protein | intracellular pentamidine concentration ([2]; 30 μM 9d): 4.69±0.51 μM pentamidine/mg protein | intracellular pentamidine concentration ([2]; 60 μM 9d): 26.6±0.6 μM pentamidine/mg protein

From patent US8710097B2, “Flavonoid dimers and methods of making and using such” (The Hong Kong Polytechnic University, priority 2006, dated 2014)
